{"source": "patent US11155586B2", "about": "“Cystine knot scaffold platform” (Genentech, Inc., priority 2015, dated 2021)", "key": {"hVEGF-A": {"biological_target": "T1, hVEGF-A (Homo sapiens, UniProt P15692)", "T1 sequence (P15692 207-395)": "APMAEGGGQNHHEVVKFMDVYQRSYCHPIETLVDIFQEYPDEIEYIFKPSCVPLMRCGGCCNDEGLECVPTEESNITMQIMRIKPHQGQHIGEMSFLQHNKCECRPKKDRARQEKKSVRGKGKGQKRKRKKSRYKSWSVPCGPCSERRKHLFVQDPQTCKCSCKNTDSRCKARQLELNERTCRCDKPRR", "test": "KDR-CHO VEGF assay to determine cellular IC50 (VEGF mediated Tyr phosphorylation of KDR)", "format": "cell-based"}, "trypsin": {"tested_on": "trypsin", "test": "Resistance to trypsin digestion", "format": "in vitro ADME", "settings": "for resistance to trypsin digestion: FIG. 4", "procedure": "Approximately 20% of VEGF_CKP9.54.90 was cleaved at Arg13 within loop 2 after 24 h incubation with trypsin at 37° C."}, "VEGF human 165": {"biological_target": "T2, VEGF human 165 (Homo sapiens, UniProt P15692)", "T2 sequence (P15692 27-191 isoform P15692-4)": "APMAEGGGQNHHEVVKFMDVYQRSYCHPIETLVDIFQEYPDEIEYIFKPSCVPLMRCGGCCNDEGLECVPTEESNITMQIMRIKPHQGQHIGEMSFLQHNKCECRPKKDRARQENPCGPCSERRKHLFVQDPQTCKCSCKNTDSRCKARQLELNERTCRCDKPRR", "test": "SPR binding assay", "settings": "for ka / kd: human 165, Table 30", "procedure": "(§1) Depending on the format of the assay either a streptavidin sensor (SA) or a dextran-coated (CM5) sensor was utilized as described below.\n(§2) For use with the SA sensor, VEGF-A was first biotinylated (no more than 2 biotin/VEGF-A) by incubating the protein with EZ-link NHS-PEG4-Biotin (Pierce) in a 1:1.5 molar ratio respectively, in PBS for 2 hours on ice. Reaction was then quenched by addition of 10 molar excess of Glycine pH 8.0 and the sample was buffer exchanged into PBS using an Amicon 0.5 mL 3000 MWCO ultra-centrifugal filters (EMD Millipore). The biotinylation state of the protein was verified by LC-MS analysis. Biotinylated VEGF-A was then captured on the surface until a resonance unit (RU) signal of about ˜400. For immobilization of VEGF-A on CM5 sensor, the surface was first activated with a mixture of N-ethyl-N′-(3-dimethylaminopropyl)carbodiimide hydrochloride and N-hydroxysuccinimide (EDC/NHS) according to the supplier instructions. VEGF-A was then diluted into coupling buffer (0.1 M Acetate Buffer, pH 5.0) and injected until the signal reached about ˜400 RU followed by a wash with 1 M ethanolamine pH 8.0 to quench remaining activated sites.\n(§3) Following the capture step, a series of the peptide concentrations were prepared in HBS-EP buffer with matching DMSO concentrations to 0.1% and injected at a flow rate of […]. The resulting sensorgrams were then analyzed using a 1:1 binding model to obtain kinetic data and affinities using Scrubber 2.0 (BioLogic Software)."}, "rabbit VEGF-A": {"biological_target": "T3, rabbit VEGF-A (Oryctolagus cuniculus, UniProt G1T1L9)", "T3 sequence (G1T1L9 1-398)": "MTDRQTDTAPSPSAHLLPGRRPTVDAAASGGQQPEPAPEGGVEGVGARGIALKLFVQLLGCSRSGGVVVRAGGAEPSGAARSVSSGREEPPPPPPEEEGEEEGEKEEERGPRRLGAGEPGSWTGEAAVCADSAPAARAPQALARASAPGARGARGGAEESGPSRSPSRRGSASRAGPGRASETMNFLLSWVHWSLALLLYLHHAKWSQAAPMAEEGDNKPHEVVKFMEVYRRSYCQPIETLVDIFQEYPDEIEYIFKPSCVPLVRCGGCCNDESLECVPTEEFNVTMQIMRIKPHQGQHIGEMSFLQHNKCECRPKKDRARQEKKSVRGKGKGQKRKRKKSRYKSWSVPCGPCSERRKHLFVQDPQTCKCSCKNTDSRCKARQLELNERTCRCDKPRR", "test": "SPR binding assay", "settings": "for ka / kd: rabbit, Table 30", "procedure": "as §1, §2, §3"}, "[1]": {"settings": "IC50 against VEGF-A in in vitro and cellular assays, Table 25, improved potency compared to parent VEGF-CKP9"}}, "note": "Read-outs that look alike come from different tables or passages of the source. Positions of bridges follow the written chain, without caps; N, C: chain ends. Residues, ends and D or L forms follow the SMILES beside them.", "data": [{"smiles": "CC[C@H](C)[C@@H]1NC(=O)[C@H](CC(=O)O)NC(=O)[C@@H]2CCCN2C(=O)CNC(=O)[C@@H]2CSSC[C@H](NC(=O)[C@H](CC(=O)O)NC1=O)C(=O)N[C@@H](CC(C)C)C(=O)N[C@@H](C)C(=O)NCC(=O)N[C@H](C(=O)N[C@H](C(=O)N[C@H]1CSSC[C@@H](C(=O)NCC(=O)O)NC(=O)[C@H](CO)NC(=O)[C@H](CC(N)=O)NC(=O)[C@H](Cc3ccc(O)cc3)NC(=O)[C@H](Cc3c[nH]c4ccccc34)NC(=O)[C@H](Cc3c[nH]cn3)NC1=O)C(C)C)CSSC[C@H](NC(=O)CN)C(=O)N[C@@H](CC(=O)O)C(=O)N[C@@H](C(C)C)C(=O)N[C@@H](CCSC)C(=O)N[C@@H](CCC(N)=O)C(=O)N1CCC[C@H]1C(=O)N[C@@H](Cc1ccc(O)cc1)C(=O)N[C@@H](Cc1c[nH]c3ccccc13)C(=O)NCC(=O)N2", "note": "[VEGF_CKP9.63.12] (H-GCDVMQPYWGCGPDIDCLAGCVCHWYNSCG-OH; disulfide 2-21, 11-17, 23-29 (inferred); N-terminus and C-terminus assumed)", "values": [{"measurement": "FOLD IMPROVEMENT RELATIVE TO VARIANT 9.54.90", "setting": "hVEGF-A; Table 36, from cellular IC50", "result": 0.74}, {"measurement": "resistance to trypsin digestion", "setting": "trypsin", "result": "maintain a degree of resistance"}, {"measurement": "ka", "setting": "VEGF human 165", "result": "4.65 × 10^6"}, {"measurement": "kd", "setting": "VEGF human 165", "result": "2.01 × 10^−2"}, {"measurement": "ka", "setting": "rabbit VEGF-A", "result": "6.91 × 10^6"}, {"measurement": "kd", "setting": "rabbit VEGF-A", "result": "1.78 × 10^−2"}]}, {"smiles": "CC[C@H](C)[C@@H]1NC(=O)[C@H](CC(N)=O)NC(=O)[C@@H](NC(=O)CN)CSSC[C@@H](C(=O)N[C@H](C(=O)N[C@H]2CSSC[C@@H](C(=O)NCC(=O)O)NC(=O)[C@H](CO)NC(=O)[C@H](CCC(N)=O)NC(=O)[C@H](Cc3ccc(O)cc3)NC(=O)[C@H](Cc3ccc(O)cc3)NC(=O)[C@H](CCC(N)=O)NC2=O)C(C)C)NC(=O)CNC(=O)[C@H](C)NC(=O)[C@H](CC(C)C)NC(=O)[C@@H]2CSSC[C@H](NC(=O)CNC(=O)[C@H](Cc3c[nH]c4ccccc34)NC(=O)[C@H](Cc3ccccc3)NC(=O)[C@@H]3CCCN3C(=O)[C@H](CC(C)C)NC(=O)[C@H](CCSC)NC1=O)C(=O)N[C@@H](CCCCN)C(=O)N[C@@H](CCC(N)=O)C(=O)N[C@@H](CC(=O)O)C(=O)N[C@@H](CO)C(=O)N[C@@H](CC(=O)O)C(=O)N2", "note": "[VEGF_CKP9.54] (H-GCNIMLPFWGCKQDSDCLAGCVCQYYQSCG-OH; disulfide 2-21, 11-17, 23-29 (inferred); N-terminus and C-terminus assumed)", "values": [{"measurement": "IC50", "setting": "hVEGF-A; Cellular IC50, Table 25", "result": 188, "unit": "nM"}, {"measurement": "IC50", "setting": "hVEGF-A; Cellular IC50, Table 28", "result": 188, "unit": "nM"}, {"measurement": "IC50", "setting": "hVEGF-A; [1]", "result": "100 to 200", "unit": "nM"}, {"measurement": "Kd", "setting": "VEGF human 165", "result": 190, "unit": "nM"}, {"measurement": "ka", "setting": "VEGF human 165", "result": "8.23 × 10^5"}, {"measurement": "kd", "setting": "VEGF human 165", "result": "1.49 × 10^−1"}, {"measurement": "Kd", "setting": "rabbit VEGF-A", "result": 133, "unit": "nM"}, {"measurement": "ka", "setting": "rabbit VEGF-A", "result": "2.10 × 10^6"}, {"measurement": "kd", "setting": "rabbit VEGF-A", "result": "2.74 × 10^−1"}]}, {"smiles": "CC[C@H](C)[C@@H]1NC(=O)[C@H](CC(N)=O)NC(=O)[C@@H](NC(=O)CN)CSSC[C@@H](C(=O)N[C@H](C(=O)N[C@H]2CSSC[C@@H](C(=O)NCC(=O)O)NC(=O)[C@H](CO)NC(=O)[C@H](CCC(N)=O)NC(=O)[C@H](Cc3ccc(O)cc3)NC(=O)[C@H](Cc3ccc(O)cc3)NC(=O)[C@H](CCC(N)=O)NC2=O)C(C)C)NC(=O)CNC(=O)[C@H](C)NC(=O)[C@H](CC(C)C)NC(=O)[C@@H]2CSSC[C@H](NC(=O)CNC(=O)[C@H](Cc3c[nH]c4ccccc34)NC(=O)[C@H](Cc3ccccc3)NC(=O)[C@@H]3CCCN3C(=O)[C@H](CC(C)C)NC(=O)[C@H](CCSC)NC1=O)C(=O)NCC(=O)N[C@@H](CCCNC(=N)N)C(=O)N[C@@H](CC(=O)O)C(=O)N[C@@H](Cc1ccccc1)C(=O)N[C@@H](CCC(=O)O)C(=O)N2", "note": "[VEGF_CKP9.54.90] (H-GCNIMLPFWGCGRDFECLAGCVCQYYQSCG-OH; disulfide 2-21, 11-17, 23-29; N-terminus and C-terminus assumed)", "values": [{"measurement": "IC50", "setting": "hVEGF-A; Cellular IC50 (nM), Table 36, loop 3/loop 4 variants", "result": 1.35, "unit": "nM"}, {"measurement": "IC50", "setting": "hVEGF-A; Cellular IC50, Table 28", "result": 1.35, "unit": "nM"}, {"measurement": "FOLD IMPROVEMENT RELATIVE TO VARIANT 9.54.90", "setting": "hVEGF-A; Table 36, from cellular IC50", "result": 1}, {"measurement": "IC50", "setting": "hVEGF-A; Table 38, F8Y and/or unnatural amino acid variants, read-out: Cellular IC50", "result": 1.35, "unit": "nM"}, {"measurement": "FOLD IMPROVEMENT RELATIVE TO VARIANT 9.54.90", "setting": "hVEGF-A; Table 38, from cellular IC50", "result": 1}, {"measurement": "metabolised at 24 h", "setting": "trypsin; 24 h incubation with trypsin at 37° C., read-out: fraction cleaved at Arg13 within loop 2", "result": "~20", "unit": "%"}, {"measurement": "resistance to trypsin digestion", "setting": "trypsin", "result": "maintain a degree of resistance"}, {"measurement": "Kd", "setting": "VEGF human 165", "result": 0.89, "unit": "nM"}, {"measurement": "ka", "setting": "VEGF human 165", "result": "1.58 × 10^7"}, {"measurement": "kd", "setting": "VEGF human 165", "result": "1.33 × 10^−2"}, {"measurement": "Kd", "setting": "rabbit VEGF-A", "result": 1.14, "unit": "nM"}, {"measurement": "ka", "setting": "rabbit VEGF-A", "result": "5.15 × 10^7"}, {"measurement": "kd", "setting": "rabbit VEGF-A", "result": "6.75 × 10^−2"}]}, {"smiles": "CSCC[C@@H]1NC(=O)[C@H](C(C)C)NC(=O)[C@H](CC(=O)O)NC(=O)[C@@H](NC(=O)CN)CSSC[C@@H](C(=O)N[C@H](C(=O)N[C@H]2CSSC[C@@H](C(=O)NCC(=O)O)NC(=O)[C@H](CO)NC(=O)[C@H](CC(N)=O)NC(=O)[C@H](Cc3ccc(O)cc3)NC(=O)[C@H](Cc3c[nH]c4ccccc34)NC(=O)[C@H](Cc3c[nH]cn3)NC2=O)C(C)C)NC(=O)CNC(=O)[C@H](C)NC(=O)[C@H](CC(C)C)NC(=O)[C@@H]2CSSC[C@H](NC(=O)CNC(=O)[C@H](Cc3c[nH]c4ccccc34)NC(=O)[C@H](Cc3ccc(O)cc3)NC(=O)[C@@H]3CCCN3C(=O)[C@H](CCC(N)=O)NC1=O)C(=O)N[C@@H](CCCCN)C(=O)N[C@@H](CCC(N)=O)C(=O)N[C@@H](CC(=O)O)C(=O)N[C@@H](CO)C(=O)N[C@@H](CC(=O)O)C(=O)N2", "note": "[VEGF_CKP9.63] (H-GCDVMQPYWGCKQDSDCLAGCVCHWYNSCG-OH; disulfide 2-21, 11-17, 23-29 (inferred); N-terminus and C-terminus assumed)", "values": [{"measurement": "IC50", "setting": "hVEGF-A; Cellular IC50, Table 25", "result": 140, "unit": "nM"}, {"measurement": "IC50", "setting": "hVEGF-A; Cellular IC50, Table 28", "result": 140, "unit": "nM"}, {"measurement": "IC50", "setting": "hVEGF-A; [1]", "result": "100 to 200", "unit": "nM"}, {"measurement": "Kd", "setting": "VEGF human 165", "result": 382, "unit": "nM"}, {"measurement": "ka", "setting": "VEGF human 165", "result": "3.40 × 10^5"}, {"measurement": "kd", "setting": "VEGF human 165", "result": "1.30 × 10^−1"}, {"measurement": "Kd", "setting": "rabbit VEGF-A", "result": 311, "unit": "nM"}, {"measurement": "ka", "setting": "rabbit VEGF-A", "result": "4.24 × 10^5"}, {"measurement": "kd", "setting": "rabbit VEGF-A", "result": "1.30 × 10^−1"}]}]}
